Results published in patent US20190270778A1, “Cyclic Peptides As C5a Receptor Antagonists” (priority 2016, published 2019).
Numbered stars: 1 amine (or outer) side, 2 acyl side, 3 side chain; on linkers, the order of the positions; unused ones are H or OH. Bridge positions count the residues as written; N and C are the ends. Square brackets hold non-standard residues; d marks the D form. Peptide text beside a SMILES is read from it. * marks the point of attachment. X2 = O=C([C@@H](C[C@H]1CC[C@@H](O)CC1)N[*:1])[*:2]; X1 = CN(CC(=O)O)[C@@H](Cc1ccccc1)C(=O)*; Hyp = O=C(O)[C@@H]1C[C@@H](O)CN1; Orn = NCCC[C@H](N)C(=O)O

Key:
C5a receptor [1] = target: T1, C5a receptor (Homo sapiens, UniProt P21730); test: HWB CD11b expression assay (C5a-challenged granulocytes, flow cytometry); assay type: cell-based
T1 construct: endogenous in cells; host or cells: leukocytes/granulocytes in freshly drawn whole blood of healthy volunteers
T1 sequence (P21730 1-350): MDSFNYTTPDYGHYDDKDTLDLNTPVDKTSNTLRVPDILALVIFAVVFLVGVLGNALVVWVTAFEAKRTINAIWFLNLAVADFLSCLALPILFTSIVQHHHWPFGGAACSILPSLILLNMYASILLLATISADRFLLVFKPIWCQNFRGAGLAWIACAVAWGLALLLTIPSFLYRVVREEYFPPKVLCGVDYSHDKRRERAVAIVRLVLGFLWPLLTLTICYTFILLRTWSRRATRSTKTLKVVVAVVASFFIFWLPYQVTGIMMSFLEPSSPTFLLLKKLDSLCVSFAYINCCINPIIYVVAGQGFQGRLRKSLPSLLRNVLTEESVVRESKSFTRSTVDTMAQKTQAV
Method: HWB was collected from healthy, non-medicated volunteers into BD Vacutainer® blood collection tubes with K2EDTA as an anticoagulant. HWB was aliquoted (85 μL/well) in 96-well, deep-well, V-bottom plates and incubated at 37° C. for 30 minutes. Test compounds (5 μL/well) were added to HWB and incubated at 37° C. for 30 minutes. Anti-human CD11b antibody conjugated with APC (BD Biosciences) was added to HWB (5 μL/well) and incubated at 37° C. for additional 30 minutes. HWB was then challenged with human C5a (final 1 nM) for 30 minutes at 37° C. Samples were treated with warm 1× Lyse/Fix buffer (BD Biosciences) to terminate activation and further incubated at 37° C. for 20 minutes to lyse red blood cells. Assay plates were centrifuged at 300×g for 5 minutes, supernatant was aspirated, and cells were washed once with PBS containing 0.5% FBS. Washed cells were resuspended in PBS containing 0.5% FBS and subjected to flow cytometric analysis using an LSRFortessa equipped with a HTS plate loader (BD Biosciences). The granulocyte population was gated for analysis of MF of CD11b staining using FACSDiva version 6.2 (BD Biosciences). Data from 11 compound concentrations (singlicate at each concentration) was normalized as a percentage of control based on the formula:
% of Control=100×(A−B)/(C−B)
where A is MF from wells containing test compound and C5a, B is MF from wells without C5a (background MF from unstimulated samples) and C is MF from wells containing only C5a (maximum MF). Inhibition curves and IC50 values (test compound concentrations which produce 50% inhibition) were determined using the Prism version 5 software (GraphPad). HWB was also stimulated with 11 different concentrations of C5a to construct a responsive curve and to obtain EC50 value (the concentration of C5a that gives half-maximal response) and curve slope using the Prism version 5 software. Kb (nM) was then calculated using the equation described by Leff and Dougal (TIPS 1993 14:110-112).

C5a receptor [2] = target: T1, C5a receptor; test: HWB oxidative burst assay (C5a-induced, luminol chemiluminescence); assay type: cell-based
Method: Inhibition of oxidative burst activity was determined in HWB primed with TNF-α and stimulated with C5a. C5a-induced oxidative burst response (generation of reactive oxygen species) was then detected in the presence of luminol as a chemiluminescent signal.
On the day of assay, HWB was collected from a healthy, non-medicated volunteer into tubes containing 3.8% sodium citrate (final sodium citrate concentration in HWB is 0.38%) and stored in a 37° C. water bath until use (no longer than 60 minutes).
To start the assay, TNF-α was added to HWB to a final concentration of 1.0 nM and 68 μL of this HWB/TNF-α mix was transferred to each well of a 384-well white Optiplate (assay plate). 4.0 μL of various concentrations of test agent were then added to the assay plate and mixed twice gently by aspirating up and down. The assay plate was then placed on a thermoshaker (JITTERBUG-4) and incubated at 37° C. (without shaking). After 60 minutes, C5a (Complement Technology) prepared in luminol (Sigma) was added to the assay plate and mixed twice gently by aspirating up and down. The plate was then placed in a ViewLux 1430 Microplate Imager (Perkin Elmer). After 5 minutes, oxidative burst activity was determined with the ViewLux by measuring luminol-enhanced whole blood chemiluminescence. Final assay conditions were 1.5 mM HEPES pH 7.5, 0.015% BSA, 15% HBSS, 0.85 ng/mL TNFα, 1.0 mM Luminol, C5a 20 nM, 76.5% HWB, 0.15% DMSO and various concentrations of test agent.
The percent (%) effect at each concentration of test agent was then calculated based on and relative to the amount of signal that was produced by positive (i.e. full inhibition of C5a induced oxidative burst) and negative (i.e. completely uninhibited C5a induced oxidative burst) control wells contained within each assay plate. The concentration and % effect values for test agents were plotted and the concentration of test agent required for 50% effect (IC50) was determined with a four-parameter logistic dose response equation (BioBook; IDBS). Kb (nM) was then calculated (BioBook; IDBS) using the equation described by Leff and Dougal (TIPS 1993 14:110-112).

Compound | Kb (C5a receptor [1]) | Kb (C5a receptor [2]) | Kb (C5a receptor [1]; human whole blood challenged with human C5a 1 nM, granulocyte CD11b mean fluorescence, Kb calculated from IC50 (Leff and Dougal), read-out: CD11b, Kb) | Kb (C5a receptor [2]; human whole blood primed with TNF-α, stimulated with C5a 20 nM, Kb calculated from IC50 (Leff and Dougal), read-out: Oxidative burst, Kb)
N=C(N)NCCC[C@@H]1NC(=O)[C@H](Cc2c[nH]c3ccccc23)NC(=O)[C@@H](C[C@H]2CC[C@@H](O)CC2)NC(=O)[C@@H]2C[C@@H](O)CN2C(=O)[C@@H](NC(=O)[C@H](Cc2ccccc2)NCC(=O)O)CCCNC1=O [Example 1, ((S)-1-(((3R,6S,9S,15S,19R,20aS)-6-((1H-indol-3-yl)methyl)-9-(3-guanidinopropyl)-19-hydroxy-3-(((1s,4S)-4-hydroxycyclohexyl)methyl)-1,4,7,10,16-pentaoxoicosahydropyrrolo[1,2-a][1,4,7,10,13]pentaazacyclooctadecin-15-yl)amino)-1-oxo-3-phenylpropan-2-yl)glycine] | 13.1 nM | 1.6 nM |  | 
N=C(N)NCCC[C@@H]1NC(=O)[C@H](Cc2c[nH]c3ccccc23)NC(=O)[C@@H](C[C@H]2CC[C@@H](O)CC2)NC(=O)[C@@H]2C[C@@H](OCC(=O)O)CN2C(=O)[C@@H](NC(=O)[C@H](Cc2ccccc2)NCC(=O)O)CCCNC1=O [Example 2, 2-(((3R,6S,9S,15S,19R,20aS)-6-((1H-indol-3-yl)methyl)-15-((S)-2-((carboxymethyl)amino)-3-phenylpropanamido)-9-(3-guanidinopropyl)-3-(((1s,4S)-4-hydroxycyclohexyl)methyl)-1,4,7,10,16-pentaoxoicosahydropyrrolo[1,2-a][1,4,7,10,13]pentaazacyclooctadecin-19-yl)oxy)acetic Acid] | 28.8 nM | 3 nM |  | 
Cc1cnn(C[C@@H]2NC(=O)[C@@H](C[C@H]3CC[C@@H](O)CC3)NC(=O)[C@@H]3C[C@@H](O)CN3C(=O)[C@@H](NC(=O)[C@H](Cc3ccccc3)NCC(=O)O)CCCNC(=O)[C@H](CCCNC(=N)N)NC2=O)c1 [Example 3, ((S)-1-(((3R,6S,9S,15S,19R,20aS)-9-(3-guanidinopropyl)-19-hydroxy-3-(((1s,4S)-4-hydroxycyclohexyl)methyl)-6-((4-methyl-1H-pyrazol-1-yl)methyl)-1,4,7,10,16-pentaoxoicosahydropyrrolo[1,2-a][1,4,7,10,13]pentaazacyclooctadecin-15-yl)amino)-1-oxo-3-phenylpropan-2-yl)glycine] | 212 nM | 21.6 nM |  | 
COc1ccc2[nH]cc(C[C@@H]3NC(=O)[C@@H](C[C@H]4CC[C@@H](O)CC4)NC(=O)[C@@H]4C[C@@H](O)CN4C(=O)[C@@H](NC(=O)[C@H](Cc4ccccc4)NCC(=O)O)CCCNC(=O)[C@H](CCCNC(=N)N)NC3=O)c2c1 [Example 4, ((S)-1-(((3R,6S,9S,15S,19R,20aS)-9-(3-guanidinopropyl)-19-hydroxy-3-(((1s,4S)-4-hydroxycyclohexyl)methyl)-6-((5-methoxy-1H-indol-3-yl)methyl)-1,4,7,10,16-pentaoxoicosahydropyrrolo[1,2-a][1,4,7,10,13]pentaazacyclooctadecin-15-yl)amino)-1-oxo-3-phenylpropan-2-yl)glycine] | 53.8 nM | 3 nM |  | 
N=C(N)NCCC[C@@H]1NC(=O)[C@H](Cc2c[nH]c3ncccc23)NC(=O)[C@@H](C[C@H]2CC[C@@H](O)CC2)NC(=O)[C@@H]2CCCN2C(=O)[C@@H](NC(=O)[C@H](Cc2ccccc2)NCC(=O)O)CCCNC1=O [Example 5, ((S)-1-(((3R,6S,9S,15S,20aS)-6-((1H-pyrrolo[2,3-b]pyridin-3-yl)methyl)-9-(3-guanidinopropyl)-3-(((1s,4S)-4-hydroxycyclohexyl)methyl)-1,4,7,10,16-pentaoxoicosahydropyrrolo[1,2-a][1,4,7,10,13]pentaazacyclooctadecin-15-yl)amino)-1-oxo-3-phenylpropan-2-yl)glycine] |  |  | 300 nM | 27.3 nM
CN(CC(=O)O)[C@@H](Cc1ccccc1)C(=O)N[C@H]1CCCNC(=O)[C@H](CCCNC(=N)N)NC(=O)[C@H](Cc2c[nH]c3ccccc23)NC(=O)[C@@H](C[C@H]2CC[C@@H](O)CC2)NC(=O)[C@@H]2C[C@@H](O)CN2C1=O [Example 11, N—((S)-1-(((3R,6S,9S,15S,19R,20aS)-6-((1H-indol-3-yl)methyl)-9-(3-guanidinopropyl)-19-hydroxy-3-(((1s,4S)-4-hydroxycyclohexyl)methyl)-1,4,7,10,16-pentaoxoicosahydropyrrolo[1,2-a][1,4,7,10,13]pentaazacyclooctadecin-15-yl)amino)-1-oxo-3-phenylpropan-2-yl)-N-methylglycine] (X1-[Orn][Hyp][X2]WR; lactam 1-C) |  | 1.2 nM |  | 
[2H]c1cc([2H])cc(C[C@H](NCC(=O)O)C(=O)N[C@H]2CCCNC(=O)[C@H](CCCNC(=N)N)NC(=O)[C@H](Cc3c[nH]c4ccccc34)NC(=O)[C@@H](C[C@H]3CC[C@@H](O)CC3)NC(=O)[C@@H]3C[C@@H](O)CN3C2=O)c1 [Example 13, ((S)-1-(((3R,6S,9S,15S,19R,20aS)-6-((1H-indol-3-yl)methyl)-9-(3-guanidinopropyl)-19-hydroxy-3-(((1s,4S)-4-hydroxycyclohexyl)methyl)-1,4,7,10,16-pentaoxoicosahydropyrrolo[1,2-a][1,4,7,10,13]pentaazacyclooctadecin-15-yl)amino)-1-oxo-3-(3,5-dideuterophenyl)propan-2-yl)glycine] |  | 1.3 nM |  | 
N=C(N)NCCC[C@@H]1NC(=O)[C@H](Cc2c[nH]c3ccccc23)NC(=O)[C@@H](C[C@H]2CC[C@@H](O)CC2)NC(=O)[C@@H]2C[C@@H](NCC(=O)O)CN2C(=O)[C@@H](NC(=O)[C@H](Cc2ccccc2)NCC(=O)O)CCCNC1=O [Example 14, ((31R,6S,9S,15S,19R,20aS)-6-((1H-indol-3-yl)methyl)-15-((S)-2-((carboxymethyl)amino)-3-phenylpropanamido)-9-(3-guanidinopropyl)-3-(((1s,4S)-4-hydroxycyclohexyl)methyl)-1,4,7,10,16-pentaoxoicosahydropyrrolo[1,2-a][1,4,7,10,13]pentaazacyclooctadecin-19-yl)glycine] |  | 1.7 nM |  | 
COc1ccc2c(C[C@@H]3NC(=O)[C@@H](C[C@H]4CC[C@@H](O)CC4)NC(=O)[C@@H]4C[C@@H](O)CN4C(=O)[C@@H](NC(=O)[C@H](Cc4ccccc4)NCC(=O)O)CCCNC(=O)[C@H](CCCNC(=N)N)NC3=O)c[nH]c2c1 [Example 15, ((S)-1-(((3R,6S,9S,15S,19R,20aS)-9-(3-guanidinopropyl)-19-hydroxy-3-(((1s,4S)-4-hydroxycyclohexyl)methyl)-6-((6-methoxy-1H-indol-3-yl)methyl)-1,4,7,10,16-pentaoxoicosahydropyrrolo[1,2-a][1,4,7,10,13]pentaazacyclooctadecin-15-yl)amino)-1-oxo-3-phenylpropan-2-yl)glycine] |  | 2.2 nM |  | 
